{"source": "patent US9884012B2", "about": "“Use of PEDF-derived polypeptides for promoting muscle or tendon regeneration or arteriogenesis” (MacKay Memorial Hospital, priority 2012, dated 2018)", "key": {"tibialis anterior muscle": {"system": "tibialis anterior muscle", "experiment": "hindlimb ischemia model, tibialis anterior muscle necrosis/fibrosis and centrally nucleated fibers", "type": "in vivo, C57BL/6 wild-type mice", "details": "two weeks after surgery, sustained-release formulation (Bolus: bolus 29-mer)", "procedure": "The gracilis, adductor magnus, soleus, and tibialis muscles were fixed in 4% paraformaldehyde, dehydrated with graded ethanol series, and paraffinized. Fixed samples were de-paraffinized in xylene and rehydrated in a graded series of ethanol. Tissues were sliced into 5-μm sections. General histology was performed using H&E dye.\nTo ascertain the number of centrally nucleated muscle fibers, sections were stained with H&E and then photographed as described above. At least 100 stained fibers were randomly chosen from each photo. Muscle fibers were judged centrally nucleated if one or more nuclei were not located at the periphery of the fiber. The data were expressed as a % of the total number of muscle fibers counted. Results were evaluated from 6 sections per muscle section, and 10 mice at each group.\n(§1) 6-week-old female C57BL/6 wild-type mice were anesthetized by an intraperitoneal injection of a mixture of zoletil (6 mg/kg) and xylazine (3 mg/kg). Hair was removed from the hindquarter with a depilating cream. To establish hindlimb ischemia, unilateral external iliac and femoral arteries and veins were ligated, cut, and excised. After surgery, the mice were randomly assigned to several experimental groups (n=6, each group) and treated as follows. In the blank control group, the mice were treated with 50 μl of blank alginate gel, whereas in the bolus control group, the mice received the bolus formulation containing 29-mer. In the PEDF peptide/alginate gel treatment groups, the mice received 50 μl of the sustained-release formulation, which comprised either 29-mer, 24-mer, or 20-mer. Additionally, in a PEDF 18-mer control group, mice were treated with a sustained-release formulation containing a PEDF 18-mer peptide. Treatments were applied by way of a single intramuscular injection to the gracilis muscle immediately after femoral artery and vein excision operation. The incision was closed after the wound was irrigated with sterile saline.\nIn most hindlimb ischemia models, tissue necrosis generally occurs in the muscles below the knee. For example, tibialis anterior muscle, which is distant to the gracilis muscle where the treatment was administered, often undergoes extensive necrosis with regeneration after femoral artery excision. The intensity of Masson's trichrome blue color staining depended on the content of collagen fibers in the investigated tissue, and fibrosis is the result of necrosis. […] Results from representative samples are illustrated in FIGS. 4A and 4B.\nStatistical analyses regarding injured area (necrotic area+fibrotic area) and numbers of centrally nucleated fibers were also performed at two weeks after the surgery, and the results were summarized in Table 2. The injured area is expressed as the percent of total stained area (%), and the centrally nucleated fibers is expressed as the total number of muscle fibers counted (%)."}, "[1]": {"system": "adductor magnus muscle arterioles", "experiment": "hindlimb ischemia model, arteriole density (α-SMA) in adductor magnus muscle", "type": "in vivo, C57BL/6 wild-type mice", "details": "two weeks after surgery, sustained-release formulation (Bolus: bolus 29-mer)", "procedure": "The small artery densities (α-SMA positive cells surrounding the whole circumference of the vessel) were measured and images were taken from 10 randomly-selected areas of adductor magnus muscle (200× magnification) in each sample, and blinded quantification was performed in triplicate by manually counting within each section; values from five sections were then averaged and expressed as arteriole density per mm^2.\nas §1\nTo investigate the arteriogenic effect of the present sustained-release formulation, adductor magnus muscles (located at the same level as femoral artery excision and in which arteriogenesis responsible for establishing collateral circulation is expected to be found) were harvested from animals in each experimental condition, two weeks after the surgery. Arterioles in muscle cross sections were identified by immunohistological staining for vascular smooth muscle cells (α-SMA; brown), and nuclei were labeled with hematoxylin; representative photographs were provided in FIG. 5. Quantitative analysis was also performed and the results were summarized in Table 3, and the data were expressed as α-SMA-positive arterioles per mm^2 in the peri-injury region."}, "tendo Achilles": {"system": "tendo Achilles", "experiment": "tendo Achilles injury model, histology and collagen in regenerated area", "type": "in vivo, Sprague-Dawley rats", "details": "three weeks after tendon injury; for Collagen in Regenerated Area (%): 150 μl sustained-release formulation (Bolus: bolus 29-mer) subcutaneously near tendon lesion", "procedure": "De-paraffinized tendon tissue sections were stained using Masson's Trichrome according to the manufacturer's instructions. For semi-quantitative analysis of collagen area, 10 fields from each slide were randomly selected under a light microscope, and the repairing area per intact tendon area of the cross section (mm^2/mm^2) was measured using the Image-Pro Plus 4.5.1 system.\nTo investigate the effects of the present PEDF peptides on tendon regeneration, a rat model with tendon injury was established as follows. Adult 10-week-old male Sprague-Dawley rats (total n=50; initial body weight=312±11 g) were anesthetized by an intraperitoneal injection of a xylazine (10 mg/kg). Then, the left tendo Achilles injury was created by full-thickness insertion of an 18-gauge needle through tendo Achilles 1 cm proximal to its insertion into the calcaneum. This created a horizontal (transaction) wound which was flanked by intact tendon tissue on both sides to prevent the retraction of severed ends.\nThe rats were randomly assigned (n=10/group) to five experimental groups and treated as follows. In the blank control group, the mice were treated with 150 μl of blank alginate gel. For the bolus control group, 150 μl of the bolus formulation (29-mer) was administered. In the treatments groups, the mice received 150 μl of the sustained-release formulation (29-mer, 24-mer, or 20-mer). Treatments were injected subcutaneously near tendon lesion immediately after the injury, and the incision was closed after the wound was irrigated with sterile saline.\nThree weeks after tendon injury, histologic analysis was performed to observe the healing of the tendon. As could be seen in the upper panel of FIG. 10, in animals treated with blank control, a broad band of disorganized fibrous scar was formed between the two cut ends, and the pink stained collagen bundle was minimal in the scar tissue. […] Also, the fibrous tissue in the scar was more organized and in parallel direction in the 29-mer treatment group.\nQuantitative analysis was also performed to assess the percentage of collagen (%) in the regenerated area, and results were summarized in Table 7."}, "aortic ring explants": {"system": "aortic ring explants", "experiment": "rat aortic ring sprouting assay (ex vivo neovessel sprouting)", "type": "cell-based", "details": "day 4; 50 ng/ml PEDF peptide, 50 ng/ml VEGF-A, 20 ng/ml FGF-2; MCDB131, 1% FBS, Matrigel", "procedure": "To further confirm the neovessel development promoted by PEDF peptides, rat aortic ring sprouting assay was performed. Thoracic aortas were removed from euthanized rats and gently stripped of peri-aortic fibroadipose tissue. Aortas were sectioned into about 2-mm length rings, which were then embedded in a growth factor-reduced Matrigel. Gels containing the aortic rings were polymerized in 12-well plates incubated at 37° C. for 30 minutes. 1 ml of MCDB131 medium supplemented with 100 units/ml penicillin and […] streptomycin, 1% FBS, and a supplemental agent (50 ng/ml VEGF-A, 20 ng/ml FGF-2, or 50 ng/ml 29-mer, 24-mer, 20-mer, Mo 29-mer, Mo 20-mer, 25-mer, or 18-mer) were added to the Matrigel-containing explants. The cultures were propagated at 37° C. in a humidified incubator for up to 4 days, with media changes every other day. Neovessel sprouting was assessed until day 4 using an inverted microscope platform (Leica) with bright-field optics; representative photographs were provided in FIG. 6. Quantification of neovessel sprouting was assessed using Image-Pro Plus 6.0 software (Dendrites program). The experiment was repeated in triplicate."}}, "note": "Marks after values point to notes of the source that are not given here.", "data": [{"sequence": "SLGAEQRTESIIHRALYYDL [20-mer, synthetic peptide corresponding to residues 93-112 of human PEDF]", "values": [{"measurement": "Centrally nucleated fibers (%)", "setting": "tibialis anterior muscle", "value": "61.2 ± 5.8", "unit": "%"}, {"measurement": "Injured Area (%) (necrotic area + fibrotic area, percent of total stained area)", "setting": "tibialis anterior muscle", "value": "38.0 ± 5.2", "unit": "%"}, {"measurement": "Arteriole Density per mm^2 (α-SMA-positive arterioles)", "setting": "[1]", "value": "10.7 ± 1.2", "unit": "per mm^2"}, {"measurement": "Collagen in Regenerated Area (%)", "setting": "tendo Achilles", "value": "82.01 ± 6.55", "unit": "%"}, {"measurement": "Neovessel Sprouting Fold", "setting": "aortic ring explants", "value": "6.5* fold of untreated aortic ring"}]}, {"sequence": "SLGAEQRTESIIHRALYYDLISSP [24-mer, synthetic peptide corresponding to residues 93-116 of human PEDF]", "values": [{"measurement": "Centrally nucleated fibers (%)", "setting": "tibialis anterior muscle", "value": "67.8 ± 5.3", "unit": "%"}, {"measurement": "Injured Area (%) (necrotic area + fibrotic area, percent of total stained area)", "setting": "tibialis anterior muscle", "value": "36.8 ± 5.5", "unit": "%"}, {"measurement": "Arteriole Density per mm^2 (α-SMA-positive arterioles)", "setting": "[1]", "value": "10.0 ± 0.58", "unit": "per mm^2"}, {"measurement": "Collagen in Regenerated Area (%)", "setting": "tendo Achilles", "value": "85.75 ± 2.56", "unit": "%"}, {"measurement": "Neovessel Sprouting Fold", "setting": "aortic ring explants", "value": "6.2* fold of untreated aortic ring"}]}, {"sequence": "SLGAEQRTESIIHRALYYDLISSPDIHGT [29-mer, synthetic peptide corresponding to residues 93-121 of human PEDF]", "values": [{"measurement": "Centrally nucleated fibers (%)", "setting": "tibialis anterior muscle", "value": "72.5 ± 5.2", "unit": "%"}, {"measurement": "Injured Area (%) (necrotic area + fibrotic area, percent of total stained area)", "setting": "tibialis anterior muscle", "value": "39.5 ± 4.2", "unit": "%"}, {"measurement": "Arteriole Density per mm^2 (α-SMA-positive arterioles)", "setting": "[1]", "value": "11.7 ± 1.5", "unit": "per mm^2"}, {"measurement": "Collagen in Regenerated Area (%)", "setting": "tendo Achilles", "value": "88.75 ± 1.89", "unit": "%"}, {"measurement": "tendon healing, histology of cut ends", "setting": "tendo Achilles; sustained-release formulation, in words", "value": "healed with much lesser scar tissue"}, {"measurement": "Neovessel Sprouting Fold", "setting": "aortic ring explants", "value": "5.6* fold of untreated aortic ring"}]}]}
